# Experiments:
# [1] = Absolute bioavailability, 3 mg IV versus 3 mg oral; type: in vivo; settings: human, plasma
# [2] = MAD study: safety (adverse events, vital signs, ECG, laboratory values, body weight); type: in vivo, human; settings: for tolerability: once daily for 10 days
# Method: Safety was assessed throughout the study based on AEs, physical examinations, weight measurements, electrocardiograms (ECGs), orthostatic vital sign assessments, and clinical laboratory evaluations. In order to thoroughly assess any potential effect of (R)-compound 1 on QT interval, continuous ECG recordings were also performed, starting approximately 1 hour before dosing, and continuing for approximately 24 hours after dosing on Days 1 and 10.
# Safety is assessed throughout the study based on AEs, physical examinations, weight measurements, ECGs, vital sign (including orthostatic) assessments, and clinical laboratory evaluations. In order to thoroughly assess any potential effect of (R)-compound 1 on QT interval, continuous ECG recordings were also performed starting approximately 1 hour before dosing and continuing for approximately 24 hours after dosing on Days 1 and 10. If cardiodynamic analyses are undertaken, 12-lead ECGs will be extracted at predefined time points paired with PK samples.
# [3] = 0.5 mg, normal salt diet, N = 9
# [4] = 1.5 mg, normal salt diet, N = 9
# [5] = 2.5 mg, normal salt diet, N = 6
# [6] = all dose levels including placebo, treatment period
# [7] = all subjects receiving (R)-compound 1
smiles,measurement,setting,value
"CCC(=O)N[C@@H]1CCCc2c(-c3ccc4c(c3)CCC(=O)N4C)cncc21 [(R)-Compound 1, (R)—N-(4-(1-methyl-2-oxo-1,2,3,4-tetrahydroquinolin-6-yl)-5,6,7,8-tetrahydroisoquinolin-8-yl)propionamide]",bioavailability,[1],97.9%
same,"Any TEAE, % of subjects","[2]; 0.5 mg NS, N = 9",(11.1) %
same,"Any TEAE, number of subjects","[2]; 0.5 mg NS, N = 9",1
same,"Related TEAE, % of subjects","[2]; 0.5 mg NS, N = 9",(11.1) %
same,"Related TEAE, number of subjects","[2]; 0.5 mg NS, N = 9",1
same,Subjects with any AE,[2]; [3],1 (11.1) n (%)
same,Subjects with any TEAE,[2]; [3],1 (11.1) n (%)
same,Subjects with any TEAE by maximum severity: Mild,[2]; [3],1 (11.1) n (%)
same,Subjects with any TEAE by maximum severity: Moderate,[2]; [3],0 (0.0) n (%)
same,Subjects with any TEAE by maximum severity: Severe,[2]; [3],0 (0.0) n (%)
same,Subjects with any TEAE leading to death,[2]; [3],0 (0.0) n (%)
same,Subjects with any TEAE leading to discontinuation,[2]; [3],0 (0.0) n (%)
same,Subjects with any study drug-related TEAE,[2]; [3],1 (11.1) n (%)
same,Subjects with any study drug-related TEAE by maximum severity: Mild,[2]; [3],1 (11.1) n (%)
same,Subjects with any study drug-related TEAE by maximum severity: Moderate,[2]; [3],0 (0.0) n (%)
same,Subjects with any study drug-related TEAE by maximum severity: Severe,[2]; [3],0 (0.0) n (%)
same,Subjects with any study drug-related TEAE leading to discontinuation,[2]; [3],0 (0.0) n (%)
same,Subjects with any study drug-related treatment-emergent SAE,[2]; [3],0 (0.0) n (%)
same,Subjects with any treatment-emergent SAE,[2]; [3],0 (0.0) n (%)
same,"Any TEAE, % of subjects","[2]; 1.5 mg NS, N = 9",(11.1) %
same,"Any TEAE, number of subjects","[2]; 1.5 mg NS, N = 9",1
same,"Related TEAE, % of subjects","[2]; 1.5 mg NS, N = 9",(0) %
same,"Related TEAE, number of subjects","[2]; 1.5 mg NS, N = 9",0
same,Subjects with any AE,[2]; [4],1 (11.1) n (%)
same,Subjects with any TEAE,[2]; [4],1 (11.1) n (%)
same,Subjects with any TEAE by maximum severity: Mild,[2]; [4],1 (11.1) n (%)
same,Subjects with any TEAE by maximum severity: Moderate,[2]; [4],0 (0.0) n (%)
same,Subjects with any TEAE by maximum severity: Severe,[2]; [4],0 (0.0) n (%)
same,Subjects with any TEAE leading to death,[2]; [4],0 (0.0) n (%)
same,Subjects with any TEAE leading to discontinuation,[2]; [4],0 (0.0) n (%)
same,Subjects with any study drug-related TEAE,[2]; [4],0 (0.0) n (%)
same,Subjects with any study drug-related TEAE by maximum severity: Mild,[2]; [4],0 (0.0) n (%)
same,Subjects with any study drug-related TEAE by maximum severity: Moderate,[2]; [4],0 (0.0) n (%)
same,Subjects with any study drug-related TEAE by maximum severity: Severe,[2]; [4],0 (0.0) n (%)
same,Subjects with any study drug-related TEAE leading to discontinuation,[2]; [4],0 (0.0) n (%)
same,Subjects with any study drug-related treatment-emergent SAE,[2]; [4],0 (0.0) n (%)
same,Subjects with any treatment-emergent SAE,[2]; [4],0 (0.0) n (%)
same,"Any TEAE, % of subjects","[2]; 2.5 mg LS, N = 9",(33.3) %
same,"Any TEAE, number of subjects","[2]; 2.5 mg LS, N = 9",3
same,"Related TEAE, % of subjects","[2]; 2.5 mg LS, N = 9",(22.2) %
same,"Related TEAE, number of subjects","[2]; 2.5 mg LS, N = 9",2
same,"Any TEAE, % of subjects","[2]; 2.5 mg NS, N = 6",(50) %
same,"Any TEAE, number of subjects","[2]; 2.5 mg NS, N = 6",3
same,"Related TEAE, % of subjects","[2]; 2.5 mg NS, N = 6",(33.3) %
same,"Related TEAE, number of subjects","[2]; 2.5 mg NS, N = 6",2
same,Subjects with any AE,"[2]; 2.5 mg, low salt diet, N = 9",3 (33.3) n (%)
same,Subjects with any TEAE,"[2]; 2.5 mg, low salt diet, N = 9",3 (33.3) n (%)
same,Subjects with any TEAE by maximum severity: Mild,"[2]; 2.5 mg, low salt diet, N = 9",3 (33.3) n (%)
same,Subjects with any TEAE by maximum severity: Moderate,"[2]; 2.5 mg, low salt diet, N = 9",0 (0.0) n (%)
same,Subjects with any TEAE by maximum severity: Severe,"[2]; 2.5 mg, low salt diet, N = 9",0 (0.0) n (%)
same,Subjects with any TEAE leading to death,"[2]; 2.5 mg, low salt diet, N = 9",0 (0.0) n (%)
same,Subjects with any TEAE leading to discontinuation,"[2]; 2.5 mg, low salt diet, N = 9",0 (0.0) n (%)
same,Subjects with any study drug-related TEAE,"[2]; 2.5 mg, low salt diet, N = 9",2 (22.2) n (%)
same,Subjects with any study drug-related TEAE by maximum severity: Mild,"[2]; 2.5 mg, low salt diet, N = 9",2 (22.2) n (%)
same,Subjects with any study drug-related TEAE by maximum severity: Moderate,"[2]; 2.5 mg, low salt diet, N = 9",0 (0.0) n (%)
same,Subjects with any study drug-related TEAE by maximum severity: Severe,"[2]; 2.5 mg, low salt diet, N = 9",0 (0.0) n (%)
same,Subjects with any study drug-related TEAE leading to discontinuation,"[2]; 2.5 mg, low salt diet, N = 9",0 (0.0) n (%)
same,Subjects with any study drug-related treatment-emergent SAE,"[2]; 2.5 mg, low salt diet, N = 9",0 (0.0) n (%)
same,Subjects with any treatment-emergent SAE,"[2]; 2.5 mg, low salt diet, N = 9",0 (0.0) n (%)
same,Subjects with any AE,[2]; [5],3 (50.0) n (%)
same,Subjects with any TEAE,[2]; [5],3 (50.0) n (%)
same,Subjects with any TEAE by maximum severity: Mild,[2]; [5],3 (50.0) n (%)
same,Subjects with any TEAE by maximum severity: Moderate,[2]; [5],0 (0.0) n (%)
same,Subjects with any TEAE by maximum severity: Severe,[2]; [5],0 (0.0) n (%)
same,Subjects with any TEAE leading to death,[2]; [5],0 (0.0) n (%)
same,Subjects with any TEAE leading to discontinuation,[2]; [5],0 (0.0) n (%)
same,Subjects with any study drug-related TEAE,[2]; [5],2 (33.3) n (%)
same,Subjects with any study drug-related TEAE by maximum severity: Mild,[2]; [5],2 (33.3) n (%)
same,Subjects with any study drug-related TEAE by maximum severity: Moderate,[2]; [5],0 (0.0) n (%)
same,Subjects with any study drug-related TEAE by maximum severity: Severe,[2]; [5],0 (0.0) n (%)
same,Subjects with any study drug-related TEAE leading to discontinuation,[2]; [5],0 (0.0) n (%)
same,Subjects with any study drug-related treatment-emergent SAE,[2]; [5],0 (0.0) n (%)
same,Subjects with any treatment-emergent SAE,[2]; [5],0 (0.0) n (%)
same,"Any TEAE, % of subjects","[2]; 5 mg LS, N = 9",(33.3) %
same,"Any TEAE, number of subjects","[2]; 5 mg LS, N = 9",3
same,"Related TEAE, % of subjects","[2]; 5 mg LS, N = 9",(11.1) %
same,"Related TEAE, number of subjects","[2]; 5 mg LS, N = 9",1
same,Subjects with any AE,"[2]; 5.0 mg, low salt diet, N = 9",3 (33.3) n (%)
same,Subjects with any TEAE,"[2]; 5.0 mg, low salt diet, N = 9",3 (33.3) n (%)
same,Subjects with any TEAE by maximum severity: Mild,"[2]; 5.0 mg, low salt diet, N = 9",3 (33.3) n (%)
same,Subjects with any TEAE by maximum severity: Moderate,"[2]; 5.0 mg, low salt diet, N = 9",0 (0.0) n (%)
same,Subjects with any TEAE by maximum severity: Severe,"[2]; 5.0 mg, low salt diet, N = 9",0 (0.0) n (%)
same,Subjects with any TEAE leading to death,"[2]; 5.0 mg, low salt diet, N = 9",0 (0.0) n (%)
same,Subjects with any TEAE leading to discontinuation,"[2]; 5.0 mg, low salt diet, N = 9",0 (0.0) n (%)
same,Subjects with any study drug-related TEAE,"[2]; 5.0 mg, low salt diet, N = 9",1 (11.1) n (%)
same,Subjects with any study drug-related TEAE by maximum severity: Mild,"[2]; 5.0 mg, low salt diet, N = 9",1 (11.1) n (%)
same,Subjects with any study drug-related TEAE by maximum severity: Moderate,"[2]; 5.0 mg, low salt diet, N = 9",0 (0.0) n (%)
same,Subjects with any study drug-related TEAE by maximum severity: Severe,"[2]; 5.0 mg, low salt diet, N = 9",0 (0.0) n (%)
same,Subjects with any study drug-related TEAE leading to discontinuation,"[2]; 5.0 mg, low salt diet, N = 9",0 (0.0) n (%)
same,Subjects with any study drug-related treatment-emergent SAE,"[2]; 5.0 mg, low salt diet, N = 9",0 (0.0) n (%)
same,Subjects with any treatment-emergent SAE,"[2]; 5.0 mg, low salt diet, N = 9",0 (0.0) n (%)
same,Subjects with any AE,"[2]; Overall (R)-compound 1, N = 42",11 (26.2) n (%)
same,Subjects with any TEAE,"[2]; Overall (R)-compound 1, N = 42",11 (26.2) n (%)
same,Subjects with any TEAE by maximum severity: Mild,"[2]; Overall (R)-compound 1, N = 42",11 (26.2) n (%)
same,Subjects with any TEAE by maximum severity: Moderate,"[2]; Overall (R)-compound 1, N = 42",0 (0.0) n (%)
same,Subjects with any TEAE by maximum severity: Severe,"[2]; Overall (R)-compound 1, N = 42",0 (0.0) n (%)
same,Subjects with any TEAE leading to death,"[2]; Overall (R)-compound 1, N = 42",0 (0.0) n (%)
same,Subjects with any TEAE leading to discontinuation,"[2]; Overall (R)-compound 1, N = 42",0 (0.0) n (%)
same,Subjects with any study drug-related TEAE,"[2]; Overall (R)-compound 1, N = 42",6 (14.3) n (%)
same,Subjects with any study drug-related TEAE by maximum severity: Mild,"[2]; Overall (R)-compound 1, N = 42",6 (14.3) n (%)
same,Subjects with any study drug-related TEAE by maximum severity: Moderate,"[2]; Overall (R)-compound 1, N = 42",0 (0.0) n (%)
same,Subjects with any study drug-related TEAE by maximum severity: Severe,"[2]; Overall (R)-compound 1, N = 42",0 (0.0) n (%)
same,Subjects with any study drug-related TEAE leading to discontinuation,"[2]; Overall (R)-compound 1, N = 42",0 (0.0) n (%)
same,Subjects with any study drug-related treatment-emergent SAE,"[2]; Overall (R)-compound 1, N = 42",0 (0.0) n (%)
same,Subjects with any treatment-emergent SAE,"[2]; Overall (R)-compound 1, N = 42",0 (0.0) n (%)
same,"Any TEAE, % of subjects","[2]; Total (R)-Compound 1, N = 42",(26.2) %
same,"Any TEAE, number of subjects","[2]; Total (R)-Compound 1, N = 42",11
same,"Related TEAE, % of subjects","[2]; Total (R)-Compound 1, N = 42",(14.3) %
same,"Related TEAE, number of subjects","[2]; Total (R)-Compound 1, N = 42",6
same,decrease in mean BW from baseline,[2]; [6],≤ 2 kg
same,decrease in mean body mass index from baseline,[2]; [6],< 0.65 kg/m^2
same,subjects experiencing a TEAE,[2]; [7],11 (26.2%)
same,subjects experiencing a TEAE considered related to study drug,[2]; [7],6 (14.3%)
same,subjects experiencing dizziness,[2]; [7],2 (4.8%)
same,subjects experiencing headache,[2]; [7],4 (9.5%)
same,subjects experiencing postural dizziness,[2]; [7],3 (7.1%)
same,BP as compared to placebo,[2]; healthy subjects,no clinically significant changes
same,"all other TEAEs (presyncope, eye irritation, abdominal pain, constipation, viral infection, rhinitis, back pain, anxiety, dry throat, dysphonia), subjects each","[2]; human, in vivo, oral, 10 days",1 subject
same,reduction in glomerular filtration rate,[2]; mild,< 15%
same,plasma sodium and potassium levels,[2]; multiple doses,"Mild, dose-dependent decreases in plasma sodium levels and increases in plasma potassium levels"
same,tolerability,[2]; healthy subjects,safe and well tolerated
same,tolerability,"[2]; healthy subjects, listed as (R)-compound 1",safe and well tolerated
same,decrease in mean BMI from baseline,[2]; overall (R)-compound 1 group,−0.442 kg/m^2
same,decrease in mean body weight from baseline,[2]; overall (R)-compound 1 group,-1.31 kg
same,QTcF,[2]; up to 5 mg QD for 10 days,no meaningful changes
